These results are taken from patent US11109593B2, “Isoxazolin-5-one derivative and herbicide containing same as active ingredient” (HOKKO CHEMICAL INDUSTRY CO., LTD., priority 2017, dated 2021).

Holding throughout (format): in vivo
Assay [1] has as its system Echinochloa crus-galli. The assay can be described thus: Test Example 1: herbicidal effect test by treatment of rice paddy soil (immediately after seeding). Conditions: 120 g/10a active ingredient, dry weight vs untreated area, 14 days after treatment. The gist of the method:
(§1)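 Paddy soil in pots with compound fertilizer, puddled; 30 seeds per species sown at 0–1 cm, flooded ~3 cm, greenhouse. Water-diluted emulsions dropped onto water immediately after seeding at 120 g active ingredient per 10 ares, duplicate. Herbicidal rate (%) from plant dry weight versus untreated, 14 days after treatment.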

Assay [2] relates to Scirpus juncoides. The description is as above. Conditions: 120 g/10a active ingredient, dry weight vs untreated area, 14 days after treatment. The procedure, abridged: as §1
The subject of assay [3] is broad leaf weeds (Lindernia pyxidaria and Monochoria vaginalis). Described as above. Conditions: 120 g/10a active ingredient, dry weight vs untreated area, 14 days after treatment. The procedure, abridged: as §1
Assay [4] concerns Echinochloa crus-galli. Nature of the assay: Test Example 2: herbicidal effect test by treatment during growing period in paddy rice cultivation (seven days after seeding). Conditions: 120 g/10a active ingredient, assessed 14 days after treatment, dry weight vs untreated area. The procedure, abridged: (§2)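 Emulsion formulations, diluted in water, applied dropwise to flooded pots (about 3 cm water) 7 days post-seeding at 120 g a.i./10 ares. Weeds sown 30 seeds each, 0–1 cm deep in puddled paddy soil; greenhouse. Readout: % reduction in plant dry weight vs untreated, day 14, duplicates.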

The test system of assay [5] is Scirpus juncoides. The assay is described as above. To be noted: 120 g/10a active ingredient, assessed 14 days after treatment, dry weight vs untreated area. The gist of the method:
as §2

Assay [6] deals with broad leaf weeds (Lindernia pyxidaria and Monochoria vaginalis). Described as above. To be noted: 120 g/10a active ingredient, assessed 14 days after treatment, dry weight vs untreated area. The gist of the method: as §2
Assay [7] relates to Amaranthus viridis. The assay can be described thus: Test Example 3: herbicidal effect test by treatment of dry field farming soil (one day after seeding). Conditions: 120 g/10a active ingredient, evaluated 14 days after treatment. The gist of the method: (§3)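 Herbicidal rate (%) = {1 − treated/untreated mean plant dry weight} × 100, scored 14 days after spraying, duplicate pots per concentration. Emulsified compound was water-diluted and applied to soil surface one day post-seeding at 120 g a.i. per 10 ares.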

For assay [8], the system named is Chenopodium album. The description is as above. To be noted: 120 g/10a active ingredient, evaluated 14 days after treatment. The gist of the method:
as §3

Assay [9] deals with Echinochloa crus-galli. Described as above. Conditions: 120 g/10a active ingredient, evaluated 14 days after treatment. The gist of the method:
as §3

In assay [10] the test system is southern crabgrass. Described as above. Conditions: 120 g/10a active ingredient, evaluated 14 days after treatment. The procedure, abridged: as §3
Assay [11] concerns Amaranthus viridis. Nature of the assay: Test Example 4: herbicidal effect test by treatment of leave and stem in dry field farming (seven days after seeding). Conditions: 120 g/10a active ingredient; emulsion sprayed seven days after seeding; evaluated 14 days after treatment. The gist of the method: (§4)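 Twenty seeds per species were mixed into the top 1 cm of alluvial soil in 36 cm^2 pots; emulsions were sprayed seven days after seeding at 100 L per 10 ares (120 g active ingredient per 10 ares). Herbicidal rate (%) = {1 − treated/untreated mean dry weight} × 100, 14 days after treatment, duplicate.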

Assay [12] deals with Chenopodium album. The description is as above. To be noted: 120 g/10a active ingredient; emulsion sprayed seven days after seeding; evaluated 14 days after treatment. The gist of the method: as §4
The subject of assay [13] is Echinochloa crus-galli. The assay is described as above. Conditions: 120 g/10a active ingredient; emulsion sprayed seven days after seeding; evaluated 14 days after treatment. The gist of the method: as §4
The subject of assay [14] is southern crabgrass. Described as above. Conditions: 120 g/10a active ingredient; emulsion sprayed seven days after seeding; evaluated 14 days after treatment. The procedure, abridged:
as §4

Regarding `Cc1c(Cc2ccccc2N(S(=O)(=O)C(F)(F)F)S(=O)(=O)C(F)(F)F)c(=O)on1CC(C)(C)C` [Compound 1-968], the “Herbicidal rate (%) Echinochloa crus-galli” value in the assay with Echinochloa crus-galli [1] and in the assay on Echinochloa crus-galli [4] was 90% throughout. Further, the “Herbicidal rate (%) Scirpus juncoides” value with Scirpus juncoides [2] and in the assay with Scirpus juncoides [5] was 90% throughout. Moreover, the “Herbicidal rate (%) Lindernia pyxidaria” value in assay [3] and in assay [6] was 90% in each case. The “Herbicidal rate (%) Monochoria vaginalis” value in [3] and in assay [6] was 90% throughout. Further, the “herbicidal rate, Amaranthus viridis” value in the assay on Amaranthus viridis [7] was 90%. In addition, the “herbicidal rate, Chenopodium album” value in the assay on Chenopodium album [8] amounted to 90%. In the assay with Echinochloa crus-galli [9], the “herbicidal rate, Echinochloa crus-galli” value was found to be 90%. Moreover, the “herbicidal rate, southern crabgrass” value with southern crabgrass [10] is recorded as 90%. For the same molecule, the “herbicidal effect (herbicidal rate), Amaranthus viridis” value (shortened to “herbicidal effect … Amaranthus viridis”) with Amaranthus viridis [11] came out at 40%. The “herbicidal effect (herbicidal rate), Chenopodium album” value (from here on “herbicidal effect … Chenopodium album”) in the assay on Chenopodium album [12] is listed as 40%. In the assay on Echinochloa crus-galli [13], the “herbicidal effect (herbicidal rate), Echinochloa crus-galli” value stood at 90%. For the same molecule, the “herbicidal effect (herbicidal rate), southern crabgrass” value (“herbicidal effect … southern crabgrass” below) in the assay on southern crabgrass [14] is listed as 90%.

`CCCC(C)n1oc(=O)c(Cc2ccccc2N(S(=O)(=O)C(F)(F)F)S(=O)(=O)C(F)(F)F)c1C` (stereo not shown) [Compound 1-970]: the “Herbicidal rate (%) Echinochloa crus-galli” value in the assay on Echinochloa crus-galli [1] and in the assay with Echinochloa crus-galli [4] was 100% each time. Also, the “Herbicidal rate (%) Scirpus juncoides” value in the assay with Scirpus juncoides [2] came out at 100%; with Scirpus juncoides [5], 90%. Further, the “Herbicidal rate (%) Lindernia pyxidaria” value in [3] was 100%; in assay [6], 70%. The “Herbicidal rate (%) Monochoria vaginalis” value came to 100% in [3] and 90% in [6]. Further, the “herbicidal rate, Amaranthus viridis” value in the assay with Amaranthus viridis [7] amounted to 60%. The “herbicidal rate, Chenopodium album” value in the assay with Chenopodium album [8] is 40%. Moreover, in the assay with Echinochloa crus-galli [9], the “herbicidal rate, Echinochloa crus-galli” value came to 90%. Also, the “herbicidal rate, southern crabgrass” value in the assay with southern crabgrass [10] was found to be 90%. The “herbicidal effect … Amaranthus viridis” value in the assay on Amaranthus viridis [11] was determined as 60%. Further, the “herbicidal effect … Chenopodium album” value in the assay on Chenopodium album [12] came to 40%. For the same molecule, the “herbicidal effect (herbicidal rate), Echinochloa crus-galli” value with Echinochloa crus-galli [13] is given as 90%. Moreover, the “herbicidal effect … southern crabgrass” value with southern crabgrass [14] turned out to be 70%.

On to `CCCC(CC)n1oc(=O)c(Cc2ccccc2N(S(=O)(=O)C(F)(F)F)S(=O)(=O)C(F)(F)F)c1C` (stereo not shown) [Compound 1-971], for which the “Herbicidal rate (%) Echinochloa crus-galli” value in the assay with Echinochloa crus-galli [1] and in the assay with Echinochloa crus-galli [4] was 100% each time. In addition, the “Herbicidal rate (%) Scirpus juncoides” value in the assay on Scirpus juncoides [2] was 100%; in the assay with Scirpus juncoides [5], 90%. The “Herbicidal rate (%) Lindernia pyxidaria” value stood at 100% in assay [3] and 80% in assay [6]. Further, the “Herbicidal rate (%) Monochoria vaginalis” value amounted to 100% in [3] and 90% in assay [6]. Besides, the “herbicidal rate, Amaranthus viridis” value in the assay on Amaranthus viridis [7] came to 80%. The “herbicidal rate, Chenopodium album” value with Chenopodium album [8] is given as 60%. For the same molecule, the “herbicidal rate, Echinochloa crus-galli” value in the assay on Echinochloa crus-galli [9] was found to be 90%. Besides, the “herbicidal rate, southern crabgrass” value in the assay on southern crabgrass [10] is given as 80%. Besides, the “herbicidal effect … Amaranthus viridis” value in the assay with Amaranthus viridis [11] is on record as 40%. The “herbicidal effect … Chenopodium album” value with Chenopodium album [12] is recorded as 50%. In addition, the “herbicidal effect (herbicidal rate), Echinochloa crus-galli” value in the assay with Echinochloa crus-galli [13] was 90%. In addition, the “herbicidal effect … southern crabgrass” value in the assay with southern crabgrass [14] was found to be 90%.

In the case of `CCC(CC)Cn1oc(=O)c(Cc2ccccc2N(S(=O)(=O)C(F)(F)F)S(=O)(=O)C(F)(F)F)c1C` [Compound 1-973], the “Herbicidal rate (%) Echinochloa crus-galli” value with Echinochloa crus-galli [1] and in the assay with Echinochloa crus-galli [4] was 100% each time. The “Herbicidal rate (%) Scirpus juncoides” value with Scirpus juncoides [2] was determined as 100%; in the assay on Scirpus juncoides [5] it was 90%. Also, the “Herbicidal rate (%) Lindernia pyxidaria” value is given as 100% in assay [3] and 60% in assay [6]. The “Herbicidal rate (%) Monochoria vaginalis” value was determined as 80% in assay [3] and 90% in assay [6]. For the same molecule, in the assay on Amaranthus viridis [7], the “herbicidal rate, Amaranthus viridis” value was 90%. Further, the “herbicidal rate, Chenopodium album” value with Chenopodium album [8] is on record as 90%. Besides, the “herbicidal rate, Echinochloa crus-galli” value in the assay on Echinochloa crus-galli [9] was determined as 100%. In the assay on southern crabgrass [10], the “herbicidal rate, southern crabgrass” value is given as 100%. Also, the “herbicidal effect … Amaranthus viridis” value with Amaranthus viridis [11] came out at 40%. Further, the “herbicidal effect … Chenopodium album” value with Chenopodium album [12] is listed as 0%. In addition, the “herbicidal effect (herbicidal rate), Echinochloa crus-galli” value in the assay with Echinochloa crus-galli [13] was 90%. Moreover, the “herbicidal effect … southern crabgrass” value in the assay with southern crabgrass [14] came to 80%.

In the case of `Cc1c(Cc2ccccc2N(S(=O)(=O)C(F)(F)F)S(=O)(=O)C(F)(F)F)c(=O)on1CCC(C)C` [Compound 1-974], the “Herbicidal rate (%) Echinochloa crus-galli” value in the assay with Echinochloa crus-galli [1] and in the assay with Echinochloa crus-galli [4] was 100% throughout. Further, the “Herbicidal rate (%) Scirpus juncoides” value in the assay on Scirpus juncoides [2] and with Scirpus juncoides [5] was 90% each time. The “Herbicidal rate (%) Lindernia pyxidaria” value in assay [3] and in assay [6] was 90% each time. The “Herbicidal rate (%) Monochoria vaginalis” value came out at 80% in [3] and 90% in assay [6]. Besides, the “herbicidal rate, Amaranthus viridis” value in the assay on Amaranthus viridis [7] is on record as 100%. Also, the “herbicidal rate, Chenopodium album” value in the assay with Chenopodium album [8] amounted to 100%. Besides, the “herbicidal rate, Echinochloa crus-galli” value with Echinochloa crus-galli [9] was found to be 90%. In addition, in the assay on southern crabgrass [10], the “herbicidal rate, southern crabgrass” value is 90%. The “herbicidal effect … Amaranthus viridis” value in the assay with Amaranthus viridis [11] is reported as 40%. Besides, the “herbicidal effect … Chenopodium album” value in the assay on Chenopodium album [12] is on record as 40%. Also, the “herbicidal effect (herbicidal rate), Echinochloa crus-galli” value in the assay with Echinochloa crus-galli [13] is on record as 90%. In addition, in the assay with southern crabgrass [14], the “herbicidal effect … southern crabgrass” value came out at 50%.

For the molecule `Cc1c(Cc2ccccc2N(S(=O)(=O)C(F)(F)F)S(=O)(=O)C(F)(F)F)c(=O)on1CCC(C)(C)C` [Compound 1-975], the “Herbicidal rate (%) Echinochloa crus-galli” value in the assay with Echinochloa crus-galli [1] and with Echinochloa crus-galli [4] was 100% throughout. Moreover, the “Herbicidal rate (%) Scirpus juncoides” value worked out at 90% in the assay on Scirpus juncoides [2] and 80% in the assay on Scirpus juncoides [5]. Besides, the “Herbicidal rate (%) Lindernia pyxidaria” value in assay [3] was 90%; in assay [6], 70%. The “Herbicidal rate (%) Monochoria vaginalis” value in [3] and in assay [6] was 80% in each case. In addition, the “herbicidal rate, Amaranthus viridis” value in the assay on Amaranthus viridis [7] was found to be 90%. Also, the “herbicidal rate, Chenopodium album” value with Chenopodium album [8] is listed as 90%. In the assay with Echinochloa crus-galli [9], the “herbicidal rate, Echinochloa crus-galli” value is given as 80%. The “herbicidal rate, southern crabgrass” value with southern crabgrass [10] is recorded as 90%. In addition, the “herbicidal effect … Amaranthus viridis” value in the assay on Amaranthus viridis [11] is 50%. For the same molecule, in the assay on Chenopodium album [12], the “herbicidal effect … Chenopodium album” value came to 40%. Also, the “herbicidal effect (herbicidal rate), Echinochloa crus-galli” value in the assay with Echinochloa crus-galli [13] is 50%. In the assay on southern crabgrass [14], the “herbicidal effect … southern crabgrass” value stood at 0%.

Take `CCCCC(C)n1oc(=O)c(Cc2ccccc2N(S(=O)(=O)C(F)(F)F)S(=O)(=O)C(F)(F)F)c1C` (stereo not shown) [Compound 1-977]: the “Herbicidal rate (%) Echinochloa crus-galli” value in the assay with Echinochloa crus-galli [1] and with Echinochloa crus-galli [4] was 100% throughout. In addition, the “Herbicidal rate (%) Scirpus juncoides” value in the assay on Scirpus juncoides [2] and in the assay on Scirpus juncoides [5] was 90% each time. The “Herbicidal rate (%) Lindernia pyxidaria” value in assay [3] worked out at 100%; in assay [6] it was 80%. The “Herbicidal rate (%) Monochoria vaginalis” value is 100% in assay [3] and 90% in [6]. Moreover, in the assay with Amaranthus viridis [7], the “herbicidal rate, Amaranthus viridis” value was found to be 70%. The “herbicidal rate, Chenopodium album” value in the assay with Chenopodium album [8] is 50%. In the assay with Echinochloa crus-galli [9], the “herbicidal rate, Echinochloa crus-galli” value was 80%. Further, the “herbicidal rate, southern crabgrass” value in the assay with southern crabgrass [10] was determined as 80%. Also, in the assay on Amaranthus viridis [11], the “herbicidal effect … Amaranthus viridis” value turned out to be 60%. In the assay on Chenopodium album [12], the “herbicidal effect … Chenopodium album” value is listed as 80%. The “herbicidal effect (herbicidal rate), Echinochloa crus-galli” value in the assay on Echinochloa crus-galli [13] is on record as 90%. The “herbicidal effect … southern crabgrass” value in the assay on southern crabgrass [14] was found to be 80%.
